Measurements reported in patent US20230181536A1, “ANTICANCER COMBINATION THERAPY WITH N-(1-ACRYLOYL-AZETIDIN-3-YL)-2-((1H-INDAZOL-3-YL)AMINO)METHYL)-1H-IMIDAZOLE-5-CARBOXAMIDE INHIBITOR OF KRAS-G12C” (TAIHO PHARMACEUTICAL CO., LTD., priority 2020, published 2023).
Structures can show the parent of a compound that is named as a salt.

Experiments:
KRAS G12C = biological target: T1, KRAS G12C (Homo sapiens, UniProt P01116, G12C); test: Inhibitory activity on the KRAS G12C nucleotide (GDP-GTP) exchange reaction; type: biochemical; details: Bodipy FL GDP-bound KRAS G12C 25 nM; preincubation at 25° C. for 4 hours; SOS1 100 nM, GppNHp 1 μM, reaction for 30 minutes
T1 construct: KRAS G12C (amino acid region: 1-169)
Outline: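 Bodipy FL-GDP-loaded KRAS G12C (aa 1-169, 25 nM) preincubated with compound 4 h at 25 °C in pH 7.5 Tris buffer, 5% DMSO; exchange started with SOS1 (aa 564-1049, 100 nM) and 1 μM GppNHp for 30 min. Fluorescence change (ex 485/em 520 nm) normalized to DMSO and no-GppNHp controls; IC50 calculated.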

NCI-H358 cells = test: Growth inhibition activity on KRAS-G12C mutant cell line (NCI-H358) (in vitro); type: cell-based; details: Homo sapiens, 72 h, 3-day culture in the presence of the compound, CellTiter-Glo2.0
Protocol: Test Example 3: A Measurement Test of Growth Inhibition Activity on KRAS-G12C Mutant Cell Line (NCI-H358) (In Vitro) NCI-H358 cells (ATCC, Cat#: CRL-5807), which are a KRAS-G12C mutant human lung cancer cell line, were suspended in a 10% fetal bovine serum-containing RPMI1640 medium (manufactured by Fujifilm Wako Pure Chemical Corporation.). The cell suspension was seeded into each well of a 384-well flat-bottom microplate and cultured in an incubator containing 5% CO2 gas at 37° C. for 1 day. The test compound was dissolved in DMSO and diluted with DMSO to give a concentration 500 times the final concentration. The solution of the test compound in DMSO was diluted with the medium used for suspending cells and added to each well of the cell-culture plate to give a DMSO final concentration of 0.2%, followed by culture in an incubator containing 5% CO2 gas at 37° C. for another 3 days. The cell count after 3-day culture in the presence of the compound was measured using CellTiter-Glo2.0 (manufactured by Promega Corporation) in accordance with the protocol recommended by Promega Corporation. The growth inhibition rate was calculated from the following equation, and the concentration of the test compound at which 50% inhibition was achieved (IC50 (nM)) was determined. […] Growth Inhibition Rate (%)=(C−T)/(C)×100 T: the emission intensity in a well into which a test compound was added. C: the emission intensity in a well into which a test compound was not added.

G12C K-Ras4B (1-169) = biological target: T2, G12C K-Ras4B (1-169) (Homo sapiens, UniProt P01116, G12C); test: Test of compounds to determine whether they bind to KRASG12C (LC-MS compound binding rate); details: final compound concentration of 2 μM, 1 μM protein, 25° C. for 2 hours
T2 construct: G12C K-Ras4B (1-169)
Protocol: Test Example 1: A Test of Compounds to Determine Whether they Bind to KRASG12C
Test compounds were prepared in the form of a 10 mM DMSO solution.
Wt K-Ras4B (1-169) and G12C K-Ras4B (1-169) proteins were mixed and diluted with a buffer (1×TBS, 0.1 mM TCEP) to prepare individual 1 μM protein solutions. A 10 mM test compound was diluted tenfold with DMSO to make a 1 mM solution, and then diluted fivefold with DMSO to make a 200 μM solution. The 200 μM solution was further diluted fivefold to make a 40 μM solution. When the final compound concentration was […], 1 μL of a 200 μM test compound was added to 19 μL of a 1 μM protein solution. When the final compound concentration was 2 μM, 1 μL of a 40 μM test compound was added to 19 μL of a 1 μM protein solution. The mixtures were stored in an incubator at 25° C. for 2 hours, and 80 μL of a 1×TBS solution containing 0.2% formic acid was added thereto to end the reaction, followed by LC-MS measurement. LC-MS measurement was performed using Xevo G2-S Q-Tof manufactured by Waters, and reverse-phase chromatography was performed with a desalting column. A mass spectrum of positive ions was obtained by electrospray. For a mass spectrum, a spectrum of a polyvalent ion was collectively converted to a molecular weight by using OpenLynx software by the MaxEnt technique, and a compound binding rate was obtained from the ratio of a signal intensity that corresponds to the molecular weight of a protein to a signal intensity that corresponds to the molecular weight of a compound binding to the protein.
By obtaining the compound binding rate for wt K-Ras4B (1-169) and the compound binding rate for G12C K-Ras4B (1-169) at the same time, information of the selectivity for G12C K-Ras4B (1-169) was obtained at the same time.
The test compounds were measured at their final compound concentration of 2 μM. […] Almost none of the compounds of the disclosure bound to wt K-Ras4B (1-169). The “binding rate” (%) for each of wt K-Ras4B (1-169) and G12C K-Ras4B (1-169) refers to the ratio of the signal intensity of bound forms to the sum of the signal intensity of non-bound forms and the signal intensity of bound forms.

[1] = test system: tumor-bearing mice expressing KRAS G12C mutation; details: WO 2015/054572 and Cell. 172 (3), 578-89, 2018; cited from earlier work
[2] = test system: cancer cells with KRAS G12C mutation; details: WO 2014/152588 and Cancer Discov. 6 (3), 316-29, 2016; cited from earlier work
[3] = biological target: G12C mutant of inactive KRAS (GDP) (Homo sapiens, UniProt P01116, G12C); details: WO 2014/152588 and Cancer Discov. 6 (3), 316-29, 2016; cited from earlier work

IC50 (KRAS G12C) [µM]	Compound	binding rate for G12C K-Ras4B (1-169) (G12C K-Ras4B (1-169))	also measured
0.005	C=CC(=O)N1CC(NC(=O)c2c(Cl)nc(CNc3n[nH]c4cc(Cl)c(C(C)(C)C)cc34)n2[C@@H]2CCN(CC(F)F)C2)C1 [Example 113, (R)-N-(1-acryloylazetidin-3-yl)-2-(((5-(tert-butyl)-6-chloro-1H-indazol-3-yl)amino)methyl)-4-chloro-1-(1-(2,2-difluoroethyl)pyrrolidin-3-yl)-1H-imidazole-5-carboxamide]	–	IC50 (NCI-H358 cells): 0.022 µM
0.007	C=CC(=O)N1CC(NC(=O)c2c(Cl)nc(CNc3n[nH]c4cc(Cl)c(C(C)(C)C)cc34)n2[C@H]2CCN(CC(F)F)C2)C1 [Example 115, (S)-N-(1-acryloylazetidin-3-yl)-2-(((5-(tert-butyl)-6-chloro-1H-indazol-3-yl)amino)methyl)-4-chloro-1-(1-(2,2-difluoroethyl)pyrrolidin-3-yl)-1H-imidazole-5-carboxamide]	–	IC50 (NCI-H358 cells): 0.056 µM
–	C=CC(=O)N1CCN(c2ncnc3c(F)c(-c4c(O)cccc4F)c(Cl)cc23)CC1 [ARS-1620]	–	antitumor action [1]: exerts antitumor action
–	C=CC(=O)N1CC(N2CCN(C(=O)CNc3cc(C4(C)CC4)c(Cl)cc3O)CC2)C1 [ARS-853]	–	apoptosis induction [2]: inducing apoptosis; binding to KRAS G12C [3]: binds to the cysteine of the G12C mutant of inactive KRAS (GDP)
0.038	C=CC(=O)N1C[C@@H](NC(=O)c2c(C)nc(CNc3n[nH]c4cc(Cl)c(C(C)(C)C)cc34)n2C)[C@H]1C (relative stereo) [Example 52, N-((2R *, 3R*)-1-acryloyl-2-methylazetidin-3-yl)-2-(((5-(tert-butyl)-6-chloro-1H-indazol-3-yl)amino)methyl)-1,4-dimethyl-1H-imidazole-5-carboxamide]	B (a binding rate of 60% or more and less than 80% is rated “B,”)	–
0.024	C=CC(=O)N1CC(NC(=O)c2c(C)nc(CNc3n[nH]c4cc(Cl)c(C(C)(C)C)cc34)n2CCOC)C1 [Example 14, N-(1-acryloylazetidin-3-yl)-2-(((5-(tert-butyl)-6-chloro-1H-indazol-3-yl)amino)methyl)-1-(2-methoxyethyl)-4-methyl-1H-imidazole-5-carboxamide]	–	–
0.008	C=CC(=O)N1CC(NC(=O)c2c(Br)nc(CNc3n[nH]c4cc(Cl)c(C(C)(C)C)cc34)n2C)C1 [Example 27, N-(1-acryloylazetidin-3-yl)-4-bromo-2-(((5-(tert-butyl)-6-chloro-1H-indazol-3-yl)amino)methyl)-1-methyl-1H-imidazole-5-carboxamide]	–	–
0.009	C=CC(=O)N1CC(NC(=O)c2c(Cl)nc(CNc3n[nH]c4cc(Cl)c(C(C)(C)C)cc34)n2CC2CCCC2)C1 [Example 110, N-(1-acryloylazetidin-3-yl)-2-(((5-(tert-butyl)-6-chloro-1H-indazol-3-yl)amino)methyl)-4-chloro-1-(cyclopentylmethyl)-1H-imidazole-5-carboxamide]	–	–
0.024	C=CC(=O)N1C[C@@H](COC)[C@@H](NC(=O)c2c(C)nc(CNc3n[nH]c4cc(Cl)c(C(C)(C)C)cc34)n2C)C1 [Example 67, N-((3R,4R)-1-acryloyl-4-(methoxymethyl)pyrrolidin-3-yl)-2-(((5-(tert-butyl)-6-chloro-1H-indazol-3-yl)amino)methyl)-1,4-dimethyl-1H-imidazole-5-carboxamide]	–	–
1.56	C=CC(=O)N1CC(NC(=O)c2cnc(C(C)Nc3n[nH]c4cc(Cl)c(C(C)(C)C)cc34)n2C)C1 (stereo not shown) [Example 4, N-(1-acryloylazetidin-3-yl)-2-(1-((5-(tert-butyl)-6-chloro-1H-indazol-3-yl)amino)ethyl)-1-methyl-1H-imidazole-5-carboxamide]	–	–
0.005	C=CC(=O)N1CC(NC(=O)c2c(Cl)nc(CNc3n[nH]c4cc(Cl)c(C(C)(C)C)cc34)n2C2CCN(C)CC2)C1 [Example 103, N-(1-acryloylazetidin-3-yl)-2-(((5-(tert-butyl)-6-chloro-1H-indazol-3-yl)amino)methyl)-4-chloro-1-(1-methylpiperidin-4-yl)-1H-imidazole-5-carboxamide]	–	–
0.004	C=CC(=O)N1CC(NC(=O)c2c(Cl)nc(CNc3n[nH]c4cc(Cl)c(C(C)(C)C)cc34)n2C2CN(C(C)C)C2)C1 [Example 107, N-(1-acryloylazetidin-3-yl)-2-(((5-(tert-butyl)-6-chloro-1H-indazol-3-yl)amino)methyl)-4-chloro-1-(1-isopropylazetidin-3-yl)-1H-imidazole-5-carboxamide]	–	–

Compound	IC50 (KRAS G12C) [µM]	binding rate for G12C K-Ras4B (1-169) (G12C K-Ras4B (1-169))	also measured
C=CC(=O)N1CC(NC(=O)c2c(-c3ccccc3)nc(CNc3n[nH]c4cc(Cl)c(C(C)(C)C)cc34)n2C)C1 [Reference Example 3, N-(1-acryloylazetidin-3-yl)-2-(((5-(tert-butyl)-6-chloro-1H-indazol-3-yl)amino)methyl)-1-methyl-4-phenyl-1H-imidazole-5-carboxamide, reference compound]	> 10	E (a binding rate of less than 20% is rated “E.”)	–
C=CC(=O)N1CC(NC(=O)c2c(C(F)F)nc(CNc3n[nH]c4cc(Cl)c(C(C)(C)C)cc34)n2C2CCN(C(C)C)C2)C1 (stereo not shown) [Example 93, N-(1-acryloylazetidin-3-yl)-2-(((5-(tert-butyl)-6-chloro-1H-indazol-3-yl)amino)methyl)-4-(difluoromethyl)-1-(1-isopropylpyrrolidin-3-yl)-1H-imidazole-5-carboxamide formate]	0.006	A (a binding rate of 80% or more is rated “A,”)	–
C=CC(=O)N1CC(NC(=O)c2ccc(CNc3n[nH]c4cc(Cl)c(C(C)(C)C)cc34)o2)C1 [Reference Example 2, N-(1-acryloylazetidin-3-yl)-5-(((5-(tert-butyl)-6-chloro-1H-indazol-3-yl)amino)methyl)furan-2-carboxamide, reference compound]	> 10	E (a binding rate of less than 20% is rated “E.”)	–
C=CC(=O)N1CC(NC(=O)c2cnc(CNc3n[nH]c4cc(Cl)c(Br)cc34)n2C)C1 [Reference Example 1, N-(1-acryloylazetidin-3-yl)-2-(((5-bromo-6-chloro-1H-indazol-3-yl)amino)methyl)-1-methyl-1H-imidazole-5-carboxamide, reference compound]	> 10	E (a binding rate of less than 20% is rated “E.”)	IC50 (NCI-H358 cells): > 10 µM
